Results as given in patent EP2689855B1, “Modified micronization device and use thereof” (Oekomineral AG, priority 2012, dated 2014).
≈ marks a conversion by molar mass, not a printed value.

Assays:
Format in all cases: physicochemical
[1] = Water solubility measurement of micronized Pterostilbene; details: thermodynamic from solid
Description: 1.00 kg of Pterostilbene (98% purity, Organic Herb, China) 50 µm of crystalline particles as model substance were subjected to micronization from present invention with additional maintaining of low temperature (20 °C) of substance via slow liquid nitrogen stream flow addition through neck feeder. In this preparation discs with blades in the shape of cubes and extruded triangles were used (Figure 7) , according to the present invention.
Such prepared samples of micronized Pterostilbene were subjected to particles size analyses and water solubility measurement.

[2] = Particle size analysis (Malvern MasterSizer 2000) of micronized samples; details: ursolic acid
Excerpt: The influence of the shape of the blades on the efficiency of the micronization has been studied by the use of the micronization device shown in Figures 1 and 2 from the prior art of the following technical characteristics: • (i) diameter of discs (Ø) of micronizer was 370 mm; • (ii) number of layers of hitting elements (blades) on the discs was 3 on primary and 2 on secondary disc; • (iii) number of blades on each of wreaths of discs was 20/16 (outer/inner wreath) from one side; and 18/16 (outer/inner wreath) from the other side of the micronizer; • (iv) the rotation velocity was 10000 rpm;
1 kg of each sample of same zeolite clinoptilolite was micronized by using the device according to the prior art and three different hitting elements as depicted in figures 5, 6 and 8. The disintegrators are characterized by the following data: • 1. Plates formed according to US4406409 A (Figure 5; Micronization-1); • 2. Slightly curved and indented plates according to HR990263 A2 (Figure 6; Micronizationt-2); and • 3. The hitting elements according to the present invention (Figure 8; Micronization-3) […]
(§1) 1 kg of each sample of ursolic acid (98% purity, Sigma Aldrich) of an average particle size of 30 µm was micronized five times in devices having different hitting elements. The discs were cooled through a feeder opening with liquid nitrogen spraying to avoid overheating of the heat-sensitive substance.
The micronized samples were analyzed for particle size (Malvern MasterSizer 2000), while the extent of crystalline disorder of particles was quantified with isothermal calorimetry (IC TAM 3, TA instruments, USA). Data was recorded with proprietary software Digitam 4.2. […]

[3] = Amorphous content / crystalline disorder by isothermal calorimetry (IC TAM 3); details: ursolic acid
Description: as §1
The micronized samples were analyzed for particle size (Malvern MasterSizer 2000), while the extent of crystalline disorder of particles was quantified with isothermal calorimetry (IC TAM 3, TA instruments, USA). Data was recorded with proprietary software Digitam 4.2.

Structure (SMILES): COc1cc(/C=C/c2ccc(O)cc2)cc(OC)c1 [Pterostilbene]
- solubility ([1]; after seven repeated processes of micronization, blades of present invention (Figure 7)): 128 µg/mL (≈ 499 µM)
- solubility ([1]; before micronization): 23 µg/mL (≈ 89.7 µM)

Structure (SMILES): C[C@H]1[C@H](C)CC[C@]2(C(=O)O)CC[C@]3(C)C(=CC[C@@H]4[C@@]5(C)CC[C@H](O)C(C)(C)[C@@H]5CC[C@]43C)[C@H]12 [ursolic acid]
- Volume (%) under ([2]; Particles size 0.105 µm, MICRONIZATION-1, five repeated micronization procedures): 0.00%
- Volume (%) under ([2]; Particles size 0.105 µm, MICRONIZATION-2, five repeated micronization procedures): 0.00%
- Volume (%) under ([2]; Particles size 0.105 µm, MICRONIZATION-3, five repeated micronization procedures): 0.00%
- Volume (%) under ([2]; Particles size 0.120 µm, MICRONIZATION-1, five repeated micronization procedures): 0.00%
- Volume (%) under ([2]; Particles size 0.120 µm, MICRONIZATION-2, five repeated micronization procedures): 0.00%
- Volume (%) under ([2]; Particles size 0.120 µm, MICRONIZATION-3, five repeated micronization procedures): 0.00%
- Volume (%) under ([2]; Particles size 0.138 µm, MICRONIZATION-1, five repeated micronization procedures): 0.00%
- Volume (%) under ([2]; Particles size 0.138 µm, MICRONIZATION-2, five repeated micronization procedures): 0.00%
- Volume (%) under ([2]; Particles size 0.138 µm, MICRONIZATION-3, five repeated micronization procedures): 0.00%
- Volume (%) under ([2]; Particles size 0.158 µm, MICRONIZATION-1, five repeated micronization procedures): 0.00%
- Volume (%) under ([2]; Particles size 0.158 µm, MICRONIZATION-2, five repeated micronization procedures): 0.00%
- Volume (%) under ([2]; Particles size 0.158 µm, MICRONIZATION-3, five repeated micronization procedures): 0.28%
- Volume (%) under ([2]; Particles size 0.182 µm, MICRONIZATION-1, five repeated micronization procedures): 0.00%
- Volume (%) under ([2]; Particles size 0.182 µm, MICRONIZATION-2, five repeated micronization procedures): 0.00%
- Volume (%) under ([2]; Particles size 0.182 µm, MICRONIZATION-3, five repeated micronization procedures): 1.38%
- Volume (%) under ([2]; Particles size 0.209 µm, MICRONIZATION-1, five repeated micronization procedures): 0.00%
- Volume (%) under ([2]; Particles size 0.209 µm, MICRONIZATION-2, five repeated micronization procedures): 0.12%
- Volume (%) under ([2]; Particles size 0.209 µm, MICRONIZATION-3, five repeated micronization procedures): 2.73%
- Volume (%) under ([2]; Particles size 0.240 µm, MICRONIZATION-1, five repeated micronization procedures): 0.00%
- Volume (%) under ([2]; Particles size 0.240 µm, MICRONIZATION-2, five repeated micronization procedures): 0.46%
- Volume (%) under ([2]; Particles size 0.240 µm, MICRONIZATION-3, five repeated micronization procedures): 3.69%
- Volume (%) under ([2]; Particles size 0.275 µm, MICRONIZATION-1, five repeated micronization procedures): 0.01%
- Volume (%) under ([2]; Particles size 0.275 µm, MICRONIZATION-2, five repeated micronization procedures): 1.19%
- Volume (%) under ([2]; Particles size 0.275 µm, MICRONIZATION-3, five repeated micronization procedures): 5.39%
- Volume (%) under ([2]; Particles size 0.316 µm, MICRONIZATION-1, five repeated micronization procedures): 0.06%
- Volume (%) under ([2]; Particles size 0.316 µm, MICRONIZATION-2, five repeated micronization procedures): 1.97%
- Volume (%) under ([2]; Particles size 0.316 µm, MICRONIZATION-3, five repeated micronization procedures): 8.42%
- Volume (%) under ([2]; Particles size 0.363 µm, MICRONIZATION-1, five repeated micronization procedures): 0.23%
- Volume (%) under ([2]; Particles size 0.363 µm, MICRONIZATION-2, five repeated micronization procedures): 2.83%
- Volume (%) under ([2]; Particles size 0.363 µm, MICRONIZATION-3, five repeated micronization procedures): 11.76%
- Volume (%) under ([2]; Particles size 0.417 µm, MICRONIZATION-1, five repeated micronization procedures): 0.50%
- Volume (%) under ([2]; Particles size 0.417 µm, MICRONIZATION-2, five repeated micronization procedures): 4.09%
- Volume (%) under ([2]; Particles size 0.417 µm, MICRONIZATION-3, five repeated micronization procedures): 14.01%
- Volume (%) under ([2]; Particles size 0.479 µm, MICRONIZATION-1, five repeated micronization procedures): 0.87%
- Volume (%) under ([2]; Particles size 0.479 µm, MICRONIZATION-2, five repeated micronization procedures): 5.36%
- Volume (%) under ([2]; Particles size 0.479 µm, MICRONIZATION-3, five repeated micronization procedures): 19.32%
- Volume (%) under ([2]; Particles size 0.550 µm, MICRONIZATION-1, five repeated micronization procedures): 1.12%
- Volume (%) under ([2]; Particles size 0.550 µm, MICRONIZATION-2, five repeated micronization procedures): 7.01%
- Volume (%) under ([2]; Particles size 0.550 µm, MICRONIZATION-3, five repeated micronization procedures): 25.19%
- Volume (%) under ([2]; Particles size 0.631 µm, MICRONIZATION-1, five repeated micronization procedures): 2.02%
- Volume (%) under ([2]; Particles size 0.631 µm, MICRONIZATION-2, five repeated micronization procedures): 9.13%
- Volume (%) under ([2]; Particles size 0.631 µm, MICRONIZATION-3, five repeated micronization procedures): 31.12%
- Volume (%) under ([2]; Particles size 0.724 µm, MICRONIZATION-1, five repeated micronization procedures): 3.29%
- Volume (%) under ([2]; Particles size 0.724 µm, MICRONIZATION-2, five repeated micronization procedures): 11.51%
- Volume (%) under ([2]; Particles size 0.724 µm, MICRONIZATION-3, five repeated micronization procedures): 36.14%
- Volume (%) under ([2]; Particles size 0.832 µm, MICRONIZATION-1, five repeated micronization procedures): 4.78%
- Volume (%) under ([2]; Particles size 0.832 µm, MICRONIZATION-2, five repeated micronization procedures): 13.61%
- Volume (%) under ([2]; Particles size 0.832 µm, MICRONIZATION-3, five repeated micronization procedures): 42.72%
- Volume (%) under ([2]; Particles size 0.955 µm, MICRONIZATION-1, five repeated micronization procedures): 6.12%
- Volume (%) under ([2]; Particles size 0.955 µm, MICRONIZATION-2, five repeated micronization procedures): 16.29%
- Volume (%) under ([2]; Particles size 0.955 µm, MICRONIZATION-3, five repeated micronization procedures): 50.02%
- Volume (%) under ([2]; Particles size 1.096 µm, MICRONIZATION-1, five repeated micronization procedures): 8.44%
- Volume (%) under ([2]; Particles size 1.096 µm, MICRONIZATION-2, five repeated micronization procedures): 19.17%
- Volume (%) under ([2]; Particles size 1.096 µm, MICRONIZATION-3, five repeated micronization procedures): 59.80%
- Amorphous Content (%, w/w) ([3]; MICRONIZATION-1, five repeated micronization procedures): 3.68 %, w/w
- Amorphous Content (%, w/w) ([3]; MICRONIZATION-2, five repeated micronization procedures): 6.12 %, w/w
- Amorphous Content (%, w/w) ([3]; MICRONIZATION-3, five repeated micronization procedures): 19.23 %, w/w
